# Measured values: ChEMBL document CHEMBL1287797, “Design and synthesis of harzialactone analogues: promising anticancer agents” (2010)
# Tests used:
# Type in all cases: functional
# [1] = Anticancer activity against mouse P388D1 cells assessed as inhibition of cell growth at 10 ug/ml by MTT assay
# HeLa [2] = experiment: Anticancer activity against human HeLa cells assessed as inhibition of cell growth at 20 ug/ml by MTT assay
# HL-60 [3] = experiment: Anticancer activity against human HL60 cells assessed as inhibition of cell growth at 20 ug/ml by MTT assay
# ZR-75-1 [4] = experiment: Anticancer activity against human ZR-75-1 cells assessed as inhibition of cell growth at 20 ug/ml by MTT assay
# COLO 205 [5] = experiment: Anticancer activity against human COLO205 cells assessed as inhibition of cell growth at 20 ug/ml by MTT assay
# [6] = Anticancer activity against mouse P388D1 cells assessed as inhibition of cell growth at 20 ug/ml by MTT assay
# HeLa [7] = experiment: Anticancer activity against human HeLa cells assessed as inhibition of cell growth at 40 ug/ml by MTT assay
# HL-60 [8] = experiment: Anticancer activity against human HL60 cells assessed as inhibition of cell growth at 40 ug/ml by MTT assay
# ZR-75-1 [9] = experiment: Anticancer activity against human ZR-75-1 cells assessed as inhibition of cell growth at 40 ug/ml by MTT assay
# COLO 205 [10] = experiment: Anticancer activity against human COLO205 cells assessed as inhibition of cell growth at 40 ug/ml by MTT assay
# [11] = Anticancer activity against mouse P388D1 cells assessed as inhibition of cell growth at 40 ug/ml by MTT assay
# HeLa [12] = experiment: Anticancer activity against human HeLa cells assessed as inhibition of cell growth at 60 ug/ml by MTT assay
# HL-60 [13] = experiment: Anticancer activity against human HL60 cells assessed as inhibition of cell growth at 60 ug/ml by MTT assay
# ZR-75-1 [14] = experiment: Anticancer activity against human ZR-75-1 cells assessed as inhibition of cell growth at 60 ug/ml by MTT assay
# COLO 205 [15] = experiment: Anticancer activity against human COLO205 cells assessed as inhibition of cell growth at 60 ug/ml by MTT assay
# [16] = Anticancer activity against mouse P388D1 cells assessed as inhibition of cell growth at 60 ug/ml by MTT assay
# HeLa [17] = experiment: Anticancer activity against human HeLa cells assessed as inhibition of cell growth at 80 ug/ml by MTT assay
# HL-60 [18] = experiment: Anticancer activity against human HL60 cells assessed as inhibition of cell growth at 80 ug/ml by MTT assay
# ZR-75-1 [19] = experiment: Anticancer activity against human ZR-75-1 cells assessed as inhibition of cell growth at 80 ug/ml by MTT assay
# COLO 205 [20] = experiment: Anticancer activity against human COLO205 cells assessed as inhibition of cell growth at 80 ug/ml by MTT assay
# [21] = Anticancer activity against mouse P388D1 cells assessed as inhibition of cell growth at 80 ug/ml by MTT assay
# HeLa [22] = experiment: Anticancer activity against human HeLa cells assessed as inhibition of cell growth at 5 ug/ml by MTT assay
# HL-60 [23] = experiment: Anticancer activity against human HL60 cells assessed as inhibition of cell growth at 5 ug/ml by MTT assay
# ZR-75-1 [24] = experiment: Anticancer activity against human ZR-75-1 cells assessed as inhibition of cell growth at 5 ug/ml by MTT assay
# COLO 205 [25] = experiment: Anticancer activity against human COLO205 cells assessed as inhibition of cell growth at 5 ug/ml by MTT assay
# [26] = Anticancer activity against mouse P388D1 cells assessed as inhibition of cell growth at 5 ug/ml by MTT assay
# HeLa [27] = experiment: Anticancer activity against human HeLa cells assessed as inhibition of cell growth at 100ug/ml by MTT assay
# HL-60 [28] = experiment: Anticancer activity against human HL60 cells assessed as inhibition of cell growth at 100ug/ml by MTT assay
# ZR-75-1 [29] = experiment: Anticancer activity against human ZR-75-1 cells assessed as inhibition of cell growth at 100ug/ml by MTT assay
# COLO 205 [30] = experiment: Anticancer activity against human COLO205 cells assessed as inhibition of cell growth at 100ug/ml by MTT assay
# [31] = Anticancer activity against mouse P388D1 cells assessed as inhibition of cell growth at 100ug/ml by MTT assay
# COLO 205 [32] = experiment: Anticancer activity against human COLO205 cells assessed as inhibition of cell growth at 10 ug/ml by MTT assay
# ZR-75-1 [33] = experiment: Anticancer activity against human ZR-75-1 cells assessed as inhibition of cell growth at 10 ug/ml by MTT assay
# HL-60 [34] = experiment: Anticancer activity against human HL60 cells assessed as inhibition of cell growth at 10 ug/ml by MTT assay
# HeLa [35] = experiment: Anticancer activity against human HeLa cells assessed as inhibition of cell growth at 10 ug/ml by MTT assay
SMILES,inhibition at 10 µg/mL [1] [%],inhibition at 20 µg/mL (HeLa [2]) [%],inhibition at 20 µg/mL (HL-60 [3]) [%],inhibition at 20 µg/mL (ZR-75-1 [4]) [%],inhibition at 20 µg/mL (COLO 205 [5]) [%],inhibition at 20 µg/mL [6] [%],inhibition at 40 µg/mL (HeLa [7]) [%],inhibition at 40 µg/mL (HL-60 [8]) [%],inhibition at 40 µg/mL (ZR-75-1 [9]) [%],inhibition at 40 µg/mL (COLO 205 [10]) [%],inhibition at 40 µg/mL [11] [%],inhibition at 60 µg/mL (HeLa [12]) [%],inhibition at 60 µg/mL (HL-60 [13]) [%],inhibition at 60 µg/mL (ZR-75-1 [14]) [%],inhibition at 60 µg/mL (COLO 205 [15]) [%],inhibition at 5 µg/mL (HeLa [22]) [%],inhibition at 5 µg/mL (HL-60 [23]) [%],inhibition at 5 µg/mL (ZR-75-1 [24]) [%],inhibition at 5 µg/mL (COLO 205 [25]) [%],inhibition at 5 µg/mL [26] [%],also measured
O=C1O[C@@H](CCc2ccccc2)C[C@H]1O,31.5,31.3,36.8,36.1,22.8,35.2,34,38.7,37.4,25.4,37.6,39,40,37.9,36,23.4,28.4,29.5,9.18,27.8,inhibition at 60 µg/mL [16]: 38.3%; inhibition at 80 µg/mL (HeLa [17]): 41%; inhibition at 80 µg/mL (HL-60 [18]): 43.2%; inhibition at 80 µg/mL (ZR-75-1 [19]): 43.6%; inhibition at 80 µg/mL (COLO 205 [20]): 65.3%; inhibition at 80 µg/mL [21]: 40%; inhibition at 100 µg/mL (HeLa [27]): 62.4%; inhibition at 100 µg/mL (HL-60 [28]): 49%; inhibition at 100 µg/mL (ZR-75-1 [29]): 50.7%; inhibition at 100 µg/mL (COLO 205 [30]): 69.3%; inhibition at 100 µg/mL [31]: 45.1%; inhibition at 10 µg/mL (COLO 205 [32]): 16.8%; inhibition at 10 µg/mL (ZR-75-1 [33]): 35.7%; inhibition at 10 µg/mL (HL-60 [34]): 31%; inhibition at 10 µg/mL (HeLa [35]): 31.3%
O=C1O[C@@H](CCc2ccc(Br)cc2)C[C@H]1O,25.9,54.4,24.5,35.2,29.4,31.5,57.5,39.4,36.6,40.9,34.6,60.6,32.6,37,43.3,52.3,20.6,20.9,23.1,10.5,inhibition at 60 µg/mL [16]: 40.1%; inhibition at 80 µg/mL (HeLa [17]): 62.5%; inhibition at 80 µg/mL (HL-60 [18]): 47.7%; inhibition at 80 µg/mL (ZR-75-1 [19]): 38.3%; inhibition at 80 µg/mL (COLO 205 [20]): 72.2%; inhibition at 80 µg/mL [21]: 40.7%; inhibition at 100 µg/mL (HeLa [27]): 69.1%; inhibition at 100 µg/mL (HL-60 [28]): 52.9%; inhibition at 100 µg/mL (ZR-75-1 [29]): 42.3%; inhibition at 100 µg/mL (COLO 205 [30]): 75.8%; inhibition at 100 µg/mL [31]: 52.5%; inhibition at 10 µg/mL (COLO 205 [32]): 26.2%; inhibition at 10 µg/mL (ZR-75-1 [33]): 33%; inhibition at 10 µg/mL (HL-60 [34]): 22.6%; inhibition at 10 µg/mL (HeLa [35]): 52.5%
CO[C@@]12[C@H](COC(N)=O)C3=C(C(=O)C(C)=C(N)C3=O)N1C[C@@H]1N[C@@H]12 [MITOMYCIN],–,–,–,–,–,–,–,–,–,–,–,–,–,–,–,56.5,53.2,51.3,56.3,55.4,–
